In patent US20220296522A1, “BRYOID COMPOSITIONS, METHODS OF MAKING AND USE THEREOF” (Aphios Corporation, priority 2021, published 2022):
Entries after “also recorded” stand apart in the source; their conditions may differ.

Legend:
alpha-secretase = alpha-secretase activity in SHSY-5Y neuroblastoma cells (FIG. 10); type: cell-based; details: 10−9 M, versus Bryostatin-1
Description: Purified Bryoids at 10−^9 M are shown to increase alpha-secretase activity in SHSY-5Y neuroblastoma cells in FIG. 10.

[1] = Biodistribution of radio-labeled Bryostatin-1 by different administration routes; type: in vivo, mouse
Description: It is worth mentioning that oil formulations were used for […] and intraperitoneal studies. Aqueous formulations were used for intravenous administration and PET formulation for intranasal administration.

[2] = Solubility of Bryostatin-1 in solvents and oils by normal phase HPLC; type: physicochemical; details: for Concentration: theoretical 2.5 mg/100 mL
Method: Based on the hydrophobicity of Bryostatin-1, we developed an oil-based formulation of Bryostatin-1. […] Isopropyl alcohol, Extra Virgin olive oil, sesame oil, and vegetable oil were all used as solvents. Thirty microliters of the stock solution were placed in each of 4 clean, dry HPLC vials. The ethanol was allowed to evaporate, leaving 25 micrograms in the vial. Then, 1.0 mL of the solvent was placed in the vial and vortexed to ensure proper mixing. These samples were then injected on a normal phase HPLC system, with a gradient of 10%-70% isopropyl alcohol in hexane as the mobile phase (specifically developed for this experiment). The concentration of each vial theoretically should be 2.5 mg/100 mL.
The reason for the higher concentrations than the standard (isopropyl alcohol) is due to the baseline. While attempting a baseline subtraction for each oil, there was negative absorbance so the blank IPA sample was subtracted from each sample's baseline. While this incorporates a little more area for integration, the amount of Bryostatin in the oil was quantifiable.

[3] = system: B6C3-Tg (APPswe, PSEN1 dE9) 85Dbo/J mice; assay: Morris water maze in APP/PS1 Alzheimer's disease mice; type: in vivo, mouse
Method: Mouse strain B6C3-Tg carrying mutant Swedish Amyloid precursor protein (sweAPP) and PS I (presenilin-1) genes associated with early onset Alzheimer's disease were subjected to water maze tests at 5-6 months of age.
In vivo studies were conducted using the Morris water maze to evaluate cognitive impairments and restoration in response to drug treatments. These studies used the mouse strain B6C3-Tg (APPswe, PSEN1 dE9) 85Dbo/J mice (MMRRC, Jackson Labs).

SK-HEP1 liver cells = assay: Metabolism by SK-HEP1 liver cells; type: in vitro ADME; details: within 24 h
[4] = system: TS65DN transgenic mouse model of Down syndrome; assay: Morris water maze in TS65DN mouse model of Down syndrome, intranasal; type: in vivo; details: PET formulation
Description: In this model, wild type mice improved over the 4 trials shown as a reduction in latency within the trial.
TS65DN mouse model of Down syndrome were purchased from MMRRC/Jackson Labs at 20-24 weeks of age and maintained in the LSUHSC-S vivarium. Segmentally trisomic Ts65Dn mice provide a postnatal model for Down syndrome.

[5] = over 72 h following intranasal administration

CCC/C=C/C=C/C(=O)O[C@H]1[C@H]2C=C3C[C@H]([C@@H](C)O)OC(=O)C[C@H](O)C[C@@H]4C[C@H](OC(C)=O)C(C)(C)[C@](O)(C[C@@H]5C/C(=C\C(=O)OC)C[C@H](/C=C/C(C)(C)[C@]1(OC(=O)C2)O3)O5)O4 [Bryoid B3, Bryostatin-3]
alpha-secretase activity (alpha-secretase): improve the production of alpha-secretase over Bryostatin-1

CCC/C=C/C=C/C(=O)O[C@H]1/C(=C/C(=O)OC)C[C@H]2C[C@H]([C@@H](C)O)OC(=O)C[C@H](O)C[C@@H]3C[C@H](OC(C)=O)C(C)(C)[C@](O)(C[C@@H]4C/C(=C/C(=O)OC)C[C@H](/C=C/C(C)(C)[C@]1(O)O2)O4)O3 [Bryostatin-1]
tissue distribution of 3H-labeled tracer ([1]; 8 h following intranasal administration, normalized to CPM/g): most abundant in hippocampus, large intestine and urine | tissue distribution of 3H-labeled tracer ([1]; 12 h following intranasal administration): most abundant in hippocampus and urine | tissue distribution of 3H-labeled tracer ([1]; 24 h following intranasal administration): most abundant in hippocampus, urine and feces | tissue distribution of 3H-labeled tracer ([1]; 48 h following intranasal administration): most abundant in hippocampus and fat tissues | accumulation in different tissues ([1]; i.p. dosed group): highest tissue accumulations | accumulation in different tissues ([1]; i.v. dosed group): highest tissue accumulations | accumulation in hippocampus and lung ([1]; intranasal delivery, by 4 h): relative high levels of Bryostatin-1 accumulation | accumulation in different tissues ([1]; oral route (oil formulation)): lowest | Hippocampal content [1, 5]: relatively high hippocampal uptake rates were achieved and maintained; also recorded: slow rate of loss over 72 h | Lung content [1, 5]: a peak at 4 h and rapid excretion by 8 h; also recorded: rapid rate of appearance at 4h followed by rapid loss at 8 h | Concentration ([2]; Extra Virgin Olive Oil): 2.9945 mg/100 mL | Concentration ([2]; Extra Virgin olive with mixed natural tocopherol antioxidants, lecithin and medium chain triglyceride emulsifiers): 2.4431 mg/100 mL | Concentration ([2]; Isopropyl Alcohol (standard)): 2.6035 mg/100 mL | Concentration ([2]; Vegetable Oil): 2.5475 mg/100 mL | solubility in oils ([2]; variety of oils): soluble in a variety of different types of oil; also recorded: soluble in a variety of oils, with the best results in Extra Virgin Olive Oil, Vegetable Oil, and Extra Virgin Olive Oil with excipients | protection against memory loss in water maze ([3]; 5 micrograms/mouse on alternative days orally in oil formulation, APP/PS1 mice 5-6 months of age, versus control animals): significant protection against Alzheimer's disease mediated memory loss | responses in water maze ([3]; i.p. treated mice): did not find that i.p. treated mice showed as good responses | metabolism by liver cells (SK-HEP1 liver cells): not significantly metabolized | inter-trial water maze performance (latency) ([4]; 0.01 μg intranasal): did not show this same improvement | inter-trial water maze performance (latency) ([4]; 0.1 μg intranasal, p<0.05 compared to vehicle treated Down's mice): inter-trial interval improvement | inter-trial water maze performance (latency) ([4]; 1 μg intranasal, p<0.001 compared to vehicle treated transgenic Down's mice): significant improvement

bryostatin-3 26-ketone [Bryoid B16]
alpha-secretase activity (alpha-secretase): improve the production of alpha-secretase over Bryostatin-1
